Patent US20210323977A1, “PYRROLIDINYL AMIDE COMPOUNDS FOR THE TREATMENT OF AUTOIMMUNE DISEASE” (Hoffmann-La Roche Inc., priority 2018, published 2021)

Molecular target: T1, human TLR7 (Homo sapiens, UniProt Q9NYK1)
T1 sequence (Q9NYK1 27-1049): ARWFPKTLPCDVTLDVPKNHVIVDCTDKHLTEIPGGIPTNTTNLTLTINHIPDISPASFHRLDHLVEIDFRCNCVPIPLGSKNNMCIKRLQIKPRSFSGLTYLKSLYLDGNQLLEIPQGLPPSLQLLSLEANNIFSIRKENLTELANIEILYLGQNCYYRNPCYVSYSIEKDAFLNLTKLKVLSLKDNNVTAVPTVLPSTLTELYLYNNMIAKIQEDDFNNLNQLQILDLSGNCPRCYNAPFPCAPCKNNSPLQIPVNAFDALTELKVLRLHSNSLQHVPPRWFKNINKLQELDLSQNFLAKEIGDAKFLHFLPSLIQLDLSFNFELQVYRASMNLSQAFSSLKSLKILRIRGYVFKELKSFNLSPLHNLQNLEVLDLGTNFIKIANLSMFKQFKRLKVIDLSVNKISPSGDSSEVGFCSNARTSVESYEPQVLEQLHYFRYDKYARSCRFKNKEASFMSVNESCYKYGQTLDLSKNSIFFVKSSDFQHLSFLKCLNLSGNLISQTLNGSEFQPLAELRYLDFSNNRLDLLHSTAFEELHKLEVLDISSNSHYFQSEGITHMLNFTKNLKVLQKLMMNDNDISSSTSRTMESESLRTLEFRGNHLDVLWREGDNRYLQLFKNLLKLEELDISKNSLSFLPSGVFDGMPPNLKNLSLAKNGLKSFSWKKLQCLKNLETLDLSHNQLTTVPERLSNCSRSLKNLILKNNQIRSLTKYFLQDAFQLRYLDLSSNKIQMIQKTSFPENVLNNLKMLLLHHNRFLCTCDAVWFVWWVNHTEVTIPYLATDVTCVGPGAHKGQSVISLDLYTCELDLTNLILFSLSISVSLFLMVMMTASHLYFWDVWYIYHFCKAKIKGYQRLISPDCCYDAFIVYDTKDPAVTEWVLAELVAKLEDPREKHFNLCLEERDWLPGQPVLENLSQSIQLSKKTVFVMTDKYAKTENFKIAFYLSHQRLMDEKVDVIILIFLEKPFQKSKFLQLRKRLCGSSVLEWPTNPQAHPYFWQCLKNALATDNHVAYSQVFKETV
Test: HEK293-Blue-hTLR-7 cells assay
Assay type: cell-based
Settings: HEK293-Blue-hTLR7 cells, SEAP reporter, R848 stimulation, 20 hrs
Source text: HEK293-Blue-hTLR-7 Cells Assay:
A stable HEK293-Blue-hTLR-7 cell line was purchased from InvivoGen (Cat. #: hkb-htlr7, San Diego, Calif., USA). These cells were originally designed for studying the stimulation of human TLR7 by monitoring the activation of NF-κB. A SEAP (secreted embryonic alkaline phosphatase) reporter gene was placed under the control of the IFN-β minimal promoter fused to five NF-κB and AP-1-binding sites. The SEAP was induced by activating NF-κB and AP-1 via stimulating HEK-Blue hTLR7 cells with TLR7 ligands. Therefore the reporter expression was declined by TLR7 antagonist under the stimulation of a ligand, such as R848 (Resiquimod), for incubation of 20 hrs. The cell culture supernatant SEAP reporter activity was determined using QUANTI-Blue™ kit (Cat. #: rep-qb1, Invivogen, San Diego, Ca, USA) at a wavelength of 640 nm, a detection medium that turns purple or blue in the presence of alkaline phosphatase.
HEK293-Blue-hTLR7 cells were incubated at a density of 250,000˜450,000 cells/mL in a volume of 170 μL in a 96-well plate in Dulbecco's Modified Eagle's medium (DMEM) containing 4.5 g/L glucose, 50 U/mL penicillin, […], […], 2 mM L-glutamine, 10% (v/v) heat-inactivated fetal bovine serum with addition of 20 sL test compound in a serial dilution in the presence of final DMSO at 1% and 10 μL of 20 uM R848 in above DMEM, perform incubation under 37° C. in a CO2 incubator for 20 hrs. Then 20 μL of the supernatant from each well was incubated with 180 sL Quanti-blue substrate solution at 37° C. for 2 hrs and the absorbance was read at 620-655 nm using a spectrophotometer. The signalling pathway that TLR7 activation leads to downstream NF-κB activation has been widely accepted, and therefore similar reporter assay was modified for evaluating TLR7 antagonist.

SMILES | IC50 [nM]
O=C(NC1CC2CNCC(C2)C1)C1CN(c2ccc(C(F)(F)F)c3nccnc23)CC12CC2 (centres unmarked) [Example 15, N-(3-azabicyclo[3.3.1]nonan-7-yl)-5-[8-(trifluoromethyl)quinoxalin-5-yl]-5-azaspiro[2.4]heptane-7-carboxamide] | 21
C[C@@H]1CN(c2ccc(C#N)c3ncccc23)C[C@H]1C(=O)NC1CCCNCC1 (single isomer, unassigned) [Example 52A, Trans-N-(azepan-4-yl)-1-(8-cyano-5-quinolyl)-4-methyl-pyrrolidine-3-carboxamide] | 203
CN(C)CC1CC(NC(=O)C2CN(c3ccc(C(F)(F)F)c4nccnc34)CC23CC3)C1 (centres unmarked) [Example 26, N-[3-[(dimethylamino)methyl]cyclobutyl]-5-[8-(trifluoromethyl)quinoxalin-5-yl]-5-azaspiro[2.4]heptane-7-carboxamide] | 36
N#Cc1ccc(N2C[C@@H](C(F)(F)F)[C@H](C(=O)N[C@H]3CNC[C@H]3F)C2)c2cccnc12 [Example 47, Trans-1-(8-cyano-5-quinolyl)-N-[(3S,4R)-4-fluoropyrrolidin-3-yl]-4-(trifluoromethyl)pyrrolidine-3-carboxamide] | 124
O=C(NC1CC2COCC(C1)N2)C1CN(c2ccc(C(F)(F)F)c3nccnc23)CC12CC2 (centres unmarked) [Example 6, N-(3-oxa-9-azabicyclo[3.3.1]nonan-7-yl)-5-[8-(trifluoromethyl)quinoxalin-5-yl]-5-azaspiro[2.4]heptane-7-carboxamide] | 9
N[C@H]1CC[C@@H](NC(=O)C2CN(c3ccc(C(F)(F)F)c4nccnc34)CC23CC3)CC1 (some centres unmarked) [Example 39, N-(4-Aminocyclohexyl)-5-[8-(trifluoromethyl)quinoxalin-5-yl]-5-azaspiro[2.4]heptane-7-carboxamide] | 74
N#Cc1ccc(N2CC(C(=O)NC[C@@H]3CNCCO3)C3(CC3)C2)c2nccnc12 (single isomer, unassigned) [Example 71A] | 21
CN1CCC(NC(=O)[C@@H]2CN(c3ccc(Cl)c4ncccc34)C[C@H]2C(F)(F)F)CC1 (relative stereo) [Example 46, Trans-1-(8-chloro-5-quinolyl)-N-(1-methyl-4-piperidyl)-4-(trifluoromethyl)pyrrolidine-3-carboxamide] | 108
N#Cc1ccc(N2CC(C(=O)NC[C@@H]3CNCCO3)C3(CC3)C2)c2nccnc12 (single isomer, unassigned) [Example 71B] | 202
C[C@@H]1CN(c2ccc(C#N)c3ncccc23)C[C@H]1C(=O)N1CCC2(CCNC2)C1 (relative stereo) [Example 53, Trans-5-[3-(2,7-diazaspiro[4.4]nonane-2-carbonyl)-4-methyl-pyrrolidin-1-yl]quinoline-8-carbonitrile] | 226
CN1CCC(NC(=O)C2CN(c3ccc(C(F)(F)F)c4nccnc34)CC23CC3)CC1 (centres unmarked) [Example 11, N-(1-methyl-4-piperidyl)-5-[8-(trifluoromethyl)quinoxalin-5-yl]-5-azaspiro[2.4]heptane-7-carboxamide] | 13
N#Cc1ccc(N2CC(C(=O)NC3CCCNCC3)C(C(F)(F)F)C2)c2cccnc12 (single isomer, unassigned) [Example 30B, N-(azepan-4-yl)-1-(8-cyano-5-quinolyl)-4-(trifluoromethyl)pyrrolidine-3-carboxamide] | 50
O=C(NC1CC2CNCC2C1)C1CN(c2ccc(C(F)(F)F)c3nccnc23)CC12CC2 (centres unmarked) [Example 21, N-(1,2,3,3a,4,5,6,6a-octahydrocyclopenta[c]pyrrol-5-yl)-5-[8-(trifluoromethyl)quinoxalin-5-yl]-5-azaspiro[2.4]heptane-7-carboxamide] | 28
C[C@@H]1CN(c2ccc(C#N)c3ncccc23)C[C@H]1C(=O)N[C@H]1CNC[C@H]1F [Example 56, Trans-1-(8-cyano-5-quinolyl)-N-[(3S,4R)-4-fluoropyrrolidin-3-yl]-4-methyl-pyrrolidine-3-carboxamide] | 282
CN1CCC(NC(=O)[C@@H]2CN(c3ccc(C#N)c4ncccc34)C[C@H]2C(F)(F)F)CC1 (relative stereo) [Example 17, Trans-1-(8-cyano-5-quinolyl)-N-(1-methyl-4-piperidyl)-4-(trifluoromethyl)pyrrolidine-3-carboxamide] | 22
C[C@H]1CN(c2ccc(Cl)c3ncccc23)C[C@@H]1C(=O)NC1CCN(C)CC1 [Example 50, (3R,4R)-1-(8-chloro-5-quinolyl)-4-methyl-N-(1-methyl-4-piperidyl)pyrrolidine-3-carboxamide] | 178
N[C@@H]1CCC[C@H](NC(=O)C2CN(c3ccc(C(F)(F)F)c4nccnc34)CC23CC3)C1 (relative stereo) [Example 43, Cis-N-(3-aminocyclohexyl)-5-[8-(trifluoromethyl)quinoxalin-5-yl]-5-azaspiro[2.4]heptane-7-carboxamide] | 81
Cc1ccc(N2C[C@H](C(=O)NC3CCN(C)CC3)[C@@H](C)C2)c2nccnc12 [Example 33, (3R,4R)-4-Methyl-N-(1-methyl-4-piperidyl)-1-(8-methylquinoxalin-5-yl)pyrrolidine-3-carboxamide] | 45
CN1CCC(NC(=O)C2CN(c3ccc(C#N)c4nccnc34)CC23CC3)CC1 (single isomer, unassigned) [Example 7A, 5-(8-Cyanoquinoxalin-5-yl)-N-(1-methyl-4-piperidyl)-5-azaspiro[2.4]heptane-7-carboxamide] | 4
CN1CCC(NC(=O)C2CN(c3ccc(C#N)c4ncccc34)CC2C(F)(F)F)CC1 (centres unmarked) [Example 18, 1-(8-Cyano-5-quinolyl)-N-(1-methyl-4-piperidyl)-4-(trifluoromethyl)pyrrolidine-3-carboxamide] | 23
C[C@@H]1CN(c2ccc(C#N)c3ncccc23)C[C@H]1C(=O)NC1CCN(C)CC1 (relative stereo) [Example 28] | 39
C[C@@H]1CN(c2ccc(C#N)c3ncccc23)C[C@H]1C(=O)N1CCC2(CCNCC2)CC1 (relative stereo) [Example 32, Trans-5-[3-(3,9-diazaspiro[5.5]undecane-3-carbonyl)-4-methyl-pyrrolidin-1-yl]quinoline-8-carbonitrile] | 44
C[C@@H]1CN(c2ccc(C#N)c3ncccc23)C[C@H]1C(=O)NC1CCCNCC1 (single isomer, unassigned) [Example 52B, Trans-N-(azepan-4-yl)-1-(8-cyano-5-quinolyl)-4-methyl-pyrrolidine-3-carboxamide] | 219
O=C(NC1CC2CCC(C1)N2)C1CN(c2ccc(C(F)(F)F)c3nccnc23)CC12CC2 (centres unmarked) [Example 23, N-(8-azabicyclo[3.2.1]octan-3-yl)-5-[8-(trifluoromethyl)quinoxalin-5-yl]-5-azaspiro[2.4]heptane-7-carboxamide] | 28
CN1CCC(NC(=O)[C@H]2CN(c3ccc(C#N)c4ncccc34)C[C@@H]2C(F)(F)F)CC1 [Example 4, (3R,4R)-1-(8-cyano-5-quinolyl)-N-(1-methyl-4-piperidyl)-4-(trifluoromethyl)pyrrolidine-3-carboxamide] | 9
N#Cc1ccc(N2CC(C(=O)NC[C@H]3CNCCO3)C3(CC3)C2)c2nccnc12 (single isomer, unassigned) [Example 70A] | 19
